Measured values from US20220202799A1, “PHARMACEUTICAL FORMULATIONS CONTAINING P2Y14 ANTAGONISTS” (priority 2019, published 2022).
“And” between values parts separate entries of the source, which are not always exact repeats. Equal values may be shown once. Read-outs that look alike come from different tables or passages of the source.

How the values were obtained:
[1] = Loss of PPTN due to adherence to surfaces of vessels; assay type: physicochemical; details: 200 ng/ml PPTN, no solubilizing agent; Control 48 h, glass scintillation vial
[2] = TPGS enhancement of solubility of PPTN at neutral pH; assay type: physicochemical
Method: α-Tocopherol polyethylene glycol succinate (TPGS) was tested for enhancement of solubility of PPTN at neutral pH. A solution containing 5 mg/mL PPTN and 4% TPGS was made by mixing components as indicated in Table 5 with stirring and heating.
To create a solution suitable for in vitro studies, the solution containing 5 mg/mL PPTN and 4% TPGS created above was diluted into phosphate-buffered saline by mixing components as indicated in Table 6.

[3] = Plasma concentrations and TK parameters, 72-hour continuous intravenous infusion; assay type: in vivo, Sprague-Dawley rats; details: for Accumulation ratio (C72h/C24h) / Css / Female/Male C72h / Accumulation ratio / half-life: 72 hours of intravenous infusion; for half-life / concentration at 24 h / concentration at 48 h / concentration at 72 h / concentration at 78 h / concentration at 84 h / concentration at 96 h: Sprague-Dawley, rat, plasma; for Plasma concentration, individual animal / concentration at 24 h / concentration at 48 h / concentration at 72 h / concentration at 78 h / concentration at 84 h / concentration at 96 h: female Sprague-Dawley rats; for concentration at 24 h / concentration at 48 h / concentration at 72 h / concentration at 78 h / concentration at 84 h / concentration at 96 h: female, iv
Method: The safety and pharmacokinetics of PPTN (KB-1801) in rats receiving continuous intravenous injections of SBECD-containing solutions were analyzed. Three cohorts of six male and six female rats each were given continuous intravenous infusion of PPTN (KB-1801) at 10 mg/kg/day, 30 mg/kg/day or 100 mg/kg/day in a dosing solution containing PPTN at 0.25 mg/mL, 0.75 mg/mL or 2.5 mg/mL and SBECD at about 3.8%. Dosing volume was 40 mIkg/day. [table]

[4] = Female, Group 16, 100 mg/kg/day

With O=C(O)c1cc(-c2ccc(C3CCNCC3)cc2)c2ccc(-c3ccc(C(F)(F)F)cc3)cc2c1 [KB-1801, 4-[4-(piperidin-4-yl)phenyl]-7-[4-(trifluoromethyl)phenyl]-2-naphthoic acid] the “% recovery vs. standard” value [1] was 26%, the “Solution pH (final)” value ([2]; 100 μM KB-1801, 0.04 wt % TPGS in buffered saline) was “Final pH: 7.4” and the Solution appearance ([2]; 100 μM KB-1801, 0.04 wt % TPGS in buffered saline (5 mg/ml solution diluted 100x)) was “Resulting clear solution”. For the same compound, the Solution appearance ([2]; 5 mg/mL KB-1801, 4 wt % TPGS, after phosphate buffer 20 mM pH 8.3) was “Resulting clear”, the “Solution pH (final)” value ([2]; 5 mg/mL KB-1801, 4 wt % TPGS, phosphate buffer, buffered saline) was “Final pH: 7.0-7.4” and the Solution appearance ([2]; 5 mg/mL KB-1801 with TPGS solution, 4 wt %, stirring and heating) was “Resulting clear”. The “Accumulation ratio (C72h/C24h)” value ([3]; Female, Group14, 10 mg/kg/day) was 0.91, the Css ([3]; Female, Group14, 10 mg/kg/day) was 606.0 ± 52.0 ng/mL and the “Accumulation ratio (C72h/C24h)” value ([3]; Female, Group 15, 30 mg/kg/day) was 0.84. For the same compound, the Css ([3]; Female, Group 15, 30 mg/kg/day) was 2037.0 ± 433.7 ng/mL, the “Accumulation ratio (C72h/C24h)” value [3, 4] was 0.88 and the Css [3, 4] was 6595.6 ± 696.2 ng/mL. The “Female/Male C72h” value ([3]; Group14, 10 mg/kg/day) was 1.05, the “Female/Male C72h” value ([3]; Group 15, 30 mg/kg/day) was 1.18 and the “Female/Male C72h” value ([3]; Group 16, 100 mg/kg/day) was 0.70. It also gave an Accumulation ratio ([3]; Male, Group14, 10 mg/kg/day) of 0.74, a Css ([3]; Male, Group14, 10 mg/kg/day) of 636.4 ± 96.8 ng/mL and an Accumulation ratio ([3]; Male, Group 15, 30 mg/kg/day) of 0.86. For the same compound, the Css ([3]; Male, Group 15, 30 mg/kg/day) was 1974.4 ± 240.2 ng/mL, the Accumulation ratio ([3]; Male, Group 16, 100 mg/kg/day) was 1.03 and the Css ([3]; Male, Group 16, 100 mg/kg/day) was 7774.6 ± 1241.3 ng/mL. For the same compound, the half-life ([3]; Female, Group14, 10 mg/kg/day) was 6.67 ± 1.21 h, the half-life ([3]; Female, Group 15, 30 mg/kg/day) was 7.06 ± 0.93 h and the half-life [3, 4] was 6.64 ± 0.36 h. The half-life ([3]; Male, Group14, 10 mg/kg/day) was 7.91 ± 1.06 h, the half-life ([3]; Male, Group 15, 30 mg/kg/day) was 8.29 ± 0.93 h and the half-life ([3]; Male, Group 16, 100 mg/kg/day) was 8.83 ± 3.33 h. The “Plasma concentration, individual animal” value ([3]; 72-hour intravenous infusion at 10 mg/kg/day, time 24 h, 10 mg/kg/day) was 784.2 ng/mL and 685.7 ng/mL, the “Plasma concentration, individual animal” value ([3]; 72-hour intravenous infusion at 10 mg/kg/day, time 48 h, 10 mg/kg/day) was 650.5 ng/mL and 588.8 ng/mL and the “Plasma concentration, individual animal” value ([3]; 72-hour intravenous infusion at 10 mg/kg/day, time 72 h, 10 mg/kg/day) was 756.4 ng/mL and 602.0 ng/mL. For the same compound, the “Plasma concentration, individual animal” value ([3]; 72-hour intravenous infusion at 10 mg/kg/day, time 78 h, 10 mg/kg/day) was 131.4 ng/mL and 160.1 ng/mL, the “Plasma concentration, individual animal” value ([3]; 72-hour intravenous infusion at 10 mg/kg/day, time 84 h, 10 mg/kg/day) was 103.5 ng/mL and 64.3 ng/mL and the “Plasma concentration, individual animal” value ([3]; 72-hour intravenous infusion at 10 mg/kg/day, time 96 h, 10 mg/kg/day) was 22.9 ng/mL and 15.3 ng/mL. The “Plasma concentration, individual animal” value ([3]; 72-hour intravenous infusion at 30 mg/kg/day, time 24 h, 30 mg/kg/day) was 2027.1 ng/mL and 2581.5 ng/mL, the “Plasma concentration, individual animal” value ([3]; 72-hour intravenous infusion at 30 mg/kg/day, time 48 h, 30 mg/kg/day) was 1661.0 ng/mL and 1763.6 ng/mL and the “Plasma concentration, individual animal” value ([3]; 72-hour intravenous infusion at 30 mg/kg/day, time 72 h, 30 mg/kg/day) was 1397.7 ng/mL and 2300.3 ng/mL. For the same compound, the “Plasma concentration, individual animal” value ([3]; 72-hour intravenous infusion at 30 mg/kg/day, time 78 h, 30 mg/kg/day) was 449.3 ng/mL and 585.0 ng/mL, the “Plasma concentration, individual animal” value ([3]; 72-hour intravenous infusion at 30 mg/kg/day, time 84 h, 30 mg/kg/day) was 453.1 ng/mL and 160.2 ng/mL and 306.2 ng/mL and the “Plasma concentration, individual animal” value ([3]; 72-hour intravenous infusion at 30 mg/kg/day, time 96 h, 30 mg/kg/day) was 75.6 ng/mL and 115.3 ng/mL. For the same compound, the “Plasma concentration, individual animal” value ([3]; 72-hour intravenous infusion at 100 mg/kg/day, time 24 h, 100 mg/kg/day) was 6709.0 ng/mL and 8238.2 ng/mL, the “Plasma concentration, individual animal” value ([3]; 72-hour intravenous infusion at 100 mg/kg/day, time 48 h, 100 mg/kg/day) was 5872.0 ng/mL and 8226.5 ng/mL and the “Plasma concentration, individual animal” value ([3]; 72-hour intravenous infusion at 100 mg/kg/day, time 72 h, 100 mg/kg/day) was 6680.1 ng/mL and 6734.5 ng/mL. The “Plasma concentration, individual animal” value ([3]; 72-hour intravenous infusion at 100 mg/kg/day, time 78 h, 100 mg/kg/day) was 1454.4 ng/mL and 2119.8 ng/mL, the “Plasma concentration, individual animal” value ([3]; 72-hour intravenous infusion at 100 mg/kg/day, time 84 h, 100 mg/kg/day) was 1075.5 ng/mL and 1046.1 ng/mL and the “Plasma concentration, individual animal” value ([3]; 72-hour intravenous infusion at 100 mg/kg/day, time 96 h, 100 mg/kg/day) was 211.8 ng/mL and 342.6 ng/mL. It also gave a concentration at 24 h ([3]; 10 mg/kg/day, 72-hour intravenous infusion at 10 mg/kg/day, time 24 h, read-out: Plasma concentration, Mean) of 688 ng/mL, a concentration at 24 h ([3]; 10 mg/kg/day, 72-hour intravenous infusion at 10 mg/kg/day, time 24 h, read-out: Plasma concentration, individual animal) of 595 ng/mL and a concentration at 48 h ([3]; 10 mg/kg/day, 72-hour intravenous infusion at 10 mg/kg/day, time 48 h, read-out: Plasma concentration, Mean) of 654 ng/mL. The concentration at 48 h ([3]; 10 mg/kg/day, 72-hour intravenous infusion at 10 mg/kg/day, time 48 h, read-out: Plasma concentration, individual animal) was 722 ng/mL, the concentration at 72 h ([3]; 10 mg/kg/day, 72-hour intravenous infusion at 10 mg/kg/day, time 72 h, read-out: Plasma concentration, Mean) was 624 ng/mL and the concentration at 72 h ([3]; 10 mg/kg/day, 72-hour intravenous infusion at 10 mg/kg/day, time 72 h, read-out: Plasma concentration, individual animal) was 514 ng/mL. The concentration at 78 h ([3]; 10 mg/kg/day, 72-hour intravenous infusion at 10 mg/kg/day, time 78 h, read-out: Plasma concentration, Mean) was 147 ng/mL, the concentration at 78 h ([3]; 10 mg/kg/day, 72-hour intravenous infusion at 10 mg/kg/day, time 78 h, read-out: Plasma concentration, individual animal) was 150 ng/mL and the concentration at 84 h ([3]; 10 mg/kg/day, 72-hour intravenous infusion at 10 mg/kg/day, time 84 h, read-out: Plasma concentration, Mean) was 80.9 ng/mL. It also gave a concentration at 84 h ([3]; 10 mg/kg/day, 72-hour intravenous infusion at 10 mg/kg/day, time 84 h, read-out: Plasma concentration, individual animal) of 74.8 ng/mL, a concentration at 96 h ([3]; 10 mg/kg/day, 72-hour intravenous infusion at 10 mg/kg/day, time 96 h, read-out: Plasma concentration, Mean) of 22.5 ng/mL and a concentration at 96 h ([3]; 10 mg/kg/day, 72-hour intravenous infusion at 10 mg/kg/day, time 96 h, read-out: Plasma concentration, individual animal) of 29.3 ng/mL. It also gave a concentration at 24 h ([3]; 30 mg/kg/day, 72-hour intravenous infusion at 30 mg/kg/day, time 24 h, read-out: Plasma concentration, Mean) of 2340 ng/mL, a concentration at 24 h ([3]; 30 mg/kg/day, 72-hour intravenous infusion at 30 mg/kg/day, time 24 h, read-out: Plasma concentration, individual animal) of 2420 ng/mL and a concentration at 48 h ([3]; 30 mg/kg/day, 72-hour intravenous infusion at 30 mg/kg/day, time 48 h, read-out: Plasma concentration, Mean) of 2210 ng/mL. For the same compound, the concentration at 48 h ([3]; 30 mg/kg/day, 72-hour intravenous infusion at 30 mg/kg/day, time 48 h, read-out: Plasma concentration, individual animal) was 3220 ng/mL, the concentration at 72 h ([3]; 30 mg/kg/day, 72-hour intravenous infusion at 30 mg/kg/day, time 72 h, read-out: Plasma concentration, Mean) was 1970 ng/mL and the concentration at 72 h ([3]; 30 mg/kg/day, 72-hour intravenous infusion at 30 mg/kg/day, time 72 h, read-out: Plasma concentration, individual animal) was 2210 ng/mL. It also gave a concentration at 78 h ([3]; 30 mg/kg/day, 72-hour intravenous infusion at 30 mg/kg/day, time 78 h, read-out: Plasma concentration, Mean) of 544 ng/mL, a concentration at 78 h ([3]; 30 mg/kg/day, 72-hour intravenous infusion at 30 mg/kg/day, time 78 h, read-out: Plasma concentration, individual animal) of 597 ng/mL and a concentration at 84 h ([3]; 30 mg/kg/day, 72-hour intravenous infusion at 30 mg/kg/day, time 84 h, read-out: Plasma concentration, Mean) of 306 ng/mL. It also gave a concentration at 96 h ([3]; 30 mg/kg/day, 72-hour intravenous infusion at 30 mg/kg/day, time 96 h, read-out: Plasma concentration, Mean) of 90.8 ng/mL and a concentration at 96 h ([3]; 30 mg/kg/day, 72-hour intravenous infusion at 30 mg/kg/day, time 96 h, read-out: Plasma concentration, individual animal) of 81.6 ng/mL.
